Format in all cases: in vivo
For experiment [1], the system named is Phytophthora infestans—PHYTIN. The settings on record: 100 ppm spray, 1-day protectant (1DP), tomatoes cultivar Rutgers.
Experiment [2] relates to Leptosphaeria nodorum—LEPTNO. Description: Glume blotch of wheat, 1-day protectant whole plant test. The settings on record: 100 ppm spray, 1-day protectant (1DP), wheat cultivar Monon.
The subject of experiment [3] is Erysiphe graminis—ERYSGT. As to the kind of experiment: Powdery Mildew of Wheat, 1-day protectant whole plant test. The settings on record: 100 ppm spray, 1-day protectant (1DP), wheat cultivar Monon.
The subject of experiment [4] is Puccinia recondita—PUCCRT. Description: Brown rust of wheat, 1-day protectant whole plant test. Particulars: 100 ppm spray, 1-day protectant (1DP), wheat cultivar Monon.

The structures appear in SMILES notation.

Take `CNC(=O)C(=NOC)c1cccc(Cl)c1COc1ccc(Sc2cccc(C)c2)cn1` [Compound 7, 2-Methoxyimino-N-methyl-{3-chloro-2-[5-(3-methylphenyl)thio-2-pyridyloxy]methylphenyl}acetamide]: the “PHYTIN percent control of the plant disease compared with untreated, inoculated plants” value (from here on “PHYTIN percent control”) in experiment [1] was found to be 100%. Besides, in experiment [2], the “LEPTNO percent control of the plant disease compared with untreated, inoculated plants” value (“LEPTNO percent control” below) is 98%. For the same molecule, the “ERYSGT percent control of the plant disease compared with untreated, inoculated plants” value (shortened to “ERYSGT percent control”) in experiment [3] is listed as 98%. The “PUCCRT percent control of the plant disease compared with untreated, inoculated plants” value (“PUCCRT percent control” for short) in experiment [4] worked out at 100%.

Take `CNC(=O)C(=NOC)c1cccc(Cl)c1COc1ccc(Sc2cccc(Cl)c2)cn1` [Compound 8, 2-Methoxyimino-N-methyl-{3-chloro-2-[5-(3-chlorophenyl)thio-2-pyridyloxy]methylphenyl}acetamide]: the “PHYTIN percent control” value in experiment [1] was found to be 100%. For the same molecule, the “LEPTNO percent control” value in experiment [2] stood at 98%. In addition, the “ERYSGT percent control” value in experiment [3] came out at 98%. Moreover, the “PUCCRT percent control” value in experiment [4] was found to be 98%.

For `CNC(=O)C(=NOC)c1ccccc1COc1nc(Sc2ccccc2)c(Cl)cc1Cl` [Compound 10], in experiment [1], the “PHYTIN percent control” value is reported as 96%. Moreover, the “LEPTNO percent control” value in experiment [2] was 98%. For the same molecule, the “ERYSGT percent control” value in experiment [3] came out at 99%. For the same molecule, in experiment [4], the “PUCCRT percent control” value turned out to be 100%.

For `CNC(=O)C(=NOC)c1ccccc1COc1nc(Sc2ccc(Cl)cc2)c(Cl)cc1Cl` [Compound 11], the “PHYTIN percent control” value in experiment [1] came to 44%. Further, the “LEPTNO percent control” value in experiment [2] was found to be 0%. Besides, in experiment [3], the “ERYSGT percent control” value is 69%. Also, the “PUCCRT percent control” value in experiment [4] is reported as 89%.

Consider `CNC(=O)C(=NOC)c1ccccc1COc1ccc(C(F)(F)F)c(Sc2ccccc2)n1` [Compound 12], for which the “PHYTIN percent control” value in experiment [1] amounted to 94%. For the same molecule, the “LEPTNO percent control” value in experiment [2] is 78%. Further, the “ERYSGT percent control” value in experiment [3] worked out at 98%. Further, in experiment [4], the “PUCCRT percent control” value is recorded as 100%.

As to `CNC(=O)C(=NOC)c1ccccc1COc1nc(Sc2ccc(C(F)(F)F)cc2)c(Cl)cc1Cl` [Compound 13], in experiment [1], the “PHYTIN percent control” value is on record as 0%. Moreover, the “LEPTNO percent control” value in experiment [2] came to 0%. Besides, the “ERYSGT percent control” value in experiment [3] stood at 98%. The “PUCCRT percent control” value in experiment [4] is 98%.

Consider `CNC(=O)C(=NOC)c1ccccc1COc1cccc(Sc2ccccc2)n1` [Compound 14], for which, in experiment [1], the “PHYTIN percent control” value is 100%. Also, in experiment [2], the “LEPTNO percent control” value came to 89%. Moreover, in experiment [3], the “ERYSGT percent control” value was 92%. For the same molecule, in experiment [4], the “PUCCRT percent control” value is 100%.

On to `CNC(=O)C(=NOC)c1ccccc1COc1cccc(Sc2ccc(C)cc2)n1` [Compound 15], for which, in experiment [1], the “PHYTIN percent control” value stood at 100%. Further, in experiment [2], the “LEPTNO percent control” value came to 67%. Further, the “ERYSGT percent control” value in experiment [3] stood at 92%. In experiment [4], the “PUCCRT percent control” value stood at 100%.

On to `CNC(=O)C(=NOC)c1ccccc1COc1cccc(Sc2cccc(C)c2)n1` [Compound 16], for which the “PHYTIN percent control” value in experiment [1] came to 100%. Further, in experiment [2], the “LEPTNO percent control” value turned out to be 89%. For the same molecule, the “ERYSGT percent control” value in experiment [3] is recorded as 92%. The “PUCCRT percent control” value in experiment [4] came to 100%.

Turning to `CNC(=O)C(=NOC)c1ccccc1COc1cccc(Sc2ccccc2C)n1` [Compound 17], the “PHYTIN percent control” value in experiment [1] is listed as 100%. Further, the “LEPTNO percent control” value in experiment [2] came to 98%. Besides, the “ERYSGT percent control” value in experiment [3] was 92%. In addition, in experiment [4], the “PUCCRT percent control” value is reported as 100%.

For the molecule `CNC(=O)C(=NOC)c1ccccc1COc1cccc(Sc2ccc(Br)cc2)n1` [Compound 19], in experiment [1], the “PHYTIN percent control” value came to 100%. Also, the “LEPTNO percent control” value in experiment [2] worked out at 98%. The “ERYSGT percent control” value in experiment [3] is 98%. Further, in experiment [4], the “PUCCRT percent control” value stood at 100%.

In the case of `CNC(=O)C(=NOC)c1ccccc1COc1cccc(Sc2ccc(Cl)cc2)n1` [Compound 20], the “PHYTIN percent control” value in experiment [1] is 100%. Also, the “LEPTNO percent control” value in experiment [2] is 98%. Besides, the “ERYSGT percent control” value in experiment [3] was determined as 92%. Moreover, the “PUCCRT percent control” value in experiment [4] stood at 100%.

As to `CNC(=O)C(=NOC)c1ccccc1COc1cccc(Sc2ccc3ccccc3c2)n1` [Compound 21], the “PHYTIN percent control” value in experiment [1] was 100%. Further, the “LEPTNO percent control” value in experiment [2] is listed as 98%. Moreover, in experiment [3], the “ERYSGT percent control” value was found to be 92%. The “PUCCRT percent control” value in experiment [4] was 100%.

For the molecule `CNC(=O)C(=NOC)c1ccccc1COc1cccc(Sc2cccc(C(F)(F)F)c2)n1` [Compound 22], the “PHYTIN percent control” value in experiment [1] amounted to 100%. For the same molecule, the “LEPTNO percent control” value in experiment [2] is 78%. For the same molecule, the “ERYSGT percent control” value in experiment [3] turned out to be 92%. Further, in experiment [4], the “PUCCRT percent control” value stood at 98%.

As to `CNC(=O)C(=NOC)c1ccccc1COc1cccc(Sc2cccc(Cl)c2)n1` [Compound 23], in experiment [1], the “PHYTIN percent control” value was 100%. The “LEPTNO percent control” value in experiment [2] worked out at 78%. The “ERYSGT percent control” value in experiment [3] is 98%. In experiment [4], the “PUCCRT percent control” value is 100%.

As for `CNC(=O)C(=NOC)c1ccccc1COc1cccc(Sc2ccc(F)cc2)n1` [Compound 24], the “PHYTIN percent control” value in experiment [1] was 100%. In addition, the “LEPTNO percent control” value in experiment [2] worked out at 98%. In experiment [3], the “ERYSGT percent control” value is given as 85%. Also, the “PUCCRT percent control” value in experiment [4] was 100%.

Turning to `CNC(=O)C(=NOC)c1ccccc1COc1cccc(Sc2ccccc2Cl)n1` [Compound 25], in experiment [1], the “PHYTIN percent control” value worked out at 94%. Besides, the “LEPTNO percent control” value in experiment [2] was found to be 98%. The “ERYSGT percent control” value in experiment [3] was found to be 77%. In experiment [4], the “PUCCRT percent control” value came out at 100%.

Turning to `CNC(=O)C(=NOC)c1ccccc1COc1cccc(Sc2c(C)cccc2C)n1` [Compound 26], the “PHYTIN percent control” value in experiment [1] is recorded as 100%. Moreover, the “LEPTNO percent control” value in experiment [2] worked out at 89%. Further, in experiment [3], the “ERYSGT percent control” value was determined as 69%. In addition, the “PUCCRT percent control” value in experiment [4] is reported as 98%.

Source of the values: patent US6559170B1, “Pyridine derivatives having fungicidal activity and processes to produce and use same” (Dow AgroScience LLC, priority 1999, dated 2003).
